Reference: patent US8193220B1 (priority 2009, dated 2012)
Where two headings read alike, the source gives them in different places.

Assays:
[1] = test system: eye muscles (lateral rectus muscle); assay type: in vivo, human
[2] = test system: eye muscles (lateral rectus muscle); conditions: bupivacaine injected into eye muscles of strabismus patients; cited from earlier work
[3] = test system: extensor digitorum longus muscle; conditions: rat hind limb extensor digitorum longus; cited from earlier work

CCCCN1CCCCC1C(=O)Nc1c(C)cccc1C (stereo not drawn) [bupivacaine]
change of eye alignment ([1]; bupivacaine alone into lateral rectus): ineffective in changing eye alignment
correction of strabismus ([1]; human, in vivo): successful correction of strabismus
length of regenerated lateral rectus muscle ([1]; human, in vivo): shorter length
length of regenerated lateral rectus muscle ([1]; one case of esotropia, bupivacaine alone, antagonist medial rectus unopposed): longer muscle
myotoxicity and weakness of the injected lateral rectus muscle ([1]; one case of esotropia, bupivacaine alone, first injection): very pronounced
effect on strabismus deviations [2]: correction or improvement of strabismus deviations
period of hypertrophy (growth beyond the original state) after regeneration [2]: 20 to 30 days
period of muscle weakness after injection [2]: 7 to 16 days
muscle size after injection [3]: enlargement of the muscle beyond its original size
